Experiments:
[1] = target: Casein kinase 1 epsilon (CSKN1E) (Homo sapiens, UniProt P49674); experiment: Casein kinase assay, CK1 epsilon; type: biochemical; settings: recombinant CSKN1E 30 nM, ATP 10 μM
Description: The recombinant protein Casein kinase 1 delta (CSKN1D) was added to the substrate solution in a concentration of 5 nM and gently mixed. Dilution series in of compounds of the present invention in DMSO were added to the reaction mixture, followed after 20 min by addition of a mixture of ATP and ^33P-ATP (specific activity 0.01 μCi/μl final) to a final concentration of 10 μM. Reactions were carried out at 25° C. for 120 min, followed by spotting the reactions onto P81 ion exchange filter paper. Unbound phosphate was removed by washing of the filters in 0.75% phosphoric acid. […] IC50 values and curve fits were obtained using the program Prism® (Graph Pad Software).
The above assay was also used to determine the inhibitory capacity of the compounds of the present invention on Casein Kinase 1 epsilon, wherein instead of CSKN1D, recombinant protein Casein kinase 1 epsilon (CSKN1E) was added to the substrate solution in a concentration of 30 nM and gently mixed.

[2] = target: Casein kinase 1 delta (CSKN1D) (Homo sapiens, UniProt P48730); experiment: Casein kinase assay, CK1 delta; type: biochemical; settings: recombinant CSKN1D 5 nM, ATP 10 μM
Chain of Casein kinase 1 delta (CSKN1D) (P48730 whole entry): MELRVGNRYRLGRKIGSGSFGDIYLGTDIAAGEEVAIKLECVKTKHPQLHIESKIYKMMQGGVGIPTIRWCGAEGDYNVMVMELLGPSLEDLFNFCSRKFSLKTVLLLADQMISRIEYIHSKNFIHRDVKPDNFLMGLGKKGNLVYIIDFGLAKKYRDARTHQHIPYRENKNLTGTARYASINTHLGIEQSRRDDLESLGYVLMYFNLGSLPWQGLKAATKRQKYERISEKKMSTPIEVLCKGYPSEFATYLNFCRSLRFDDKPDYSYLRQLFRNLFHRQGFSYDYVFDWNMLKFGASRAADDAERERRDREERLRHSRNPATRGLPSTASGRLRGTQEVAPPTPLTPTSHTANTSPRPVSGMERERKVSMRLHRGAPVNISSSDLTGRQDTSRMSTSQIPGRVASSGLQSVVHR

Chain of Casein kinase 1 epsilon (CSKN1E) (P49674 whole entry): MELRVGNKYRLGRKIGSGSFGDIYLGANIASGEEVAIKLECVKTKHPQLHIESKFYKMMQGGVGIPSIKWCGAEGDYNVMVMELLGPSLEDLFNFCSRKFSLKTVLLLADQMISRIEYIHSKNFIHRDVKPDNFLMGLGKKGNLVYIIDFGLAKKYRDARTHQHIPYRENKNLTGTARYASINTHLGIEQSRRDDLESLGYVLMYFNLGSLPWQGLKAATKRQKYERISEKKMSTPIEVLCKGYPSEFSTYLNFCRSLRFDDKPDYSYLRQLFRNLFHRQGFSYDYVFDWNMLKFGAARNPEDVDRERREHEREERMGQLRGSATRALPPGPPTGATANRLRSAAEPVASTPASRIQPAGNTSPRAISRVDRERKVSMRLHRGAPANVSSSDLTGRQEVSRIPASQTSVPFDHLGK

Row | IC50 [1] [nM] | IC50 [2] [nM] | SMILES
1 | > 1000 | 200 to 1000 | O=C(Nc1nc2cc3c(cc2[nH]1)OC(F)(F)O3)c1c(F)cccc1F [Compound 54, N-(2,2-difluoro-5H-[1,3]dioxolo[4′,5′:4,5]benzo[1,2-d]imidazol-6-yl)-2,6-difluorobenzamide]
2 | 200 to 1000 | 200 to 1000 | O=C(Nc1nc2cc3c(cc2[nH]1)OC(F)(F)O3)c1csc(Br)n1 [Compound 55, 2-bromo-N-(2,2-difluoro-5H-[1,3]dioxolo[4′,5′:4,5]benzo[1,2-d]imidazol-6-yl)thiazole-4-carboxamide]
3 | < 200 | < 200 | O=C(Nc1nc(C(=O)Nc2nc3cc4c(cc3[nH]2)OC(F)(F)O4)ns1)c1cccc(Cl)c1 [Compound 57]
4 | > 1000 | > 1000 | O=C(Nc1n[nH]c(C(=O)Nc2nc3cc4c(cc3[nH]2)OC(F)(F)O4)n1)c1ccc([N+](=O)[O-])cc1 [Compound 61, N-(2,2-difluoro-5H-[1,3]dioxolo[4′,5′:4,5]benzo[1,2-d]imidazol-6-yl)-3-(4-nitrobenzamido)-1H-1,2,4-triazole-5-carboxamide]
5 | > 1000 | 200 to 1000 | Cc1ccccc1C(=O)Nc1nc2cc3c(cc2[nH]1)OC(F)(F)O3 [Compound 68, N-(2,2-difluoro-5H-[1,3]dioxolo[4′,5′:4,5]benzo[1,2-d]imidazol-6-yl)-2-methylbenzamide]
6 | 200 to 1000 | < 200 | COc1ccc(C(=O)Nc2nc(C(=O)Nc3nc4cc5c(cc4[nH]3)OC(F)(F)O5)cs2)cc1 [Compound 69, N-(2,2-difluoro-5H-[1,3]dioxolo[4′,5′:4,5]benzo[1,2-d]imidazol-6-yl)-2-(4-methoxybenzamido)thiazole-4-carboxamide]
7 | 200 to 1000 | 200 to 1000 | Nc1sccc1C(=O)Nc1nc2cc3c(cc2[nH]1)OC(F)(F)O3 [Compound 79, 2-amino-N-(2,2-difluoro-5H-[1,3]dioxolo[4′,5′:4,5]benzo[1,2-d]imidazol-6-yl)thiophene-3-carboxamide]
8 | < 200 | < 200 | NS(=O)(=O)c1cc(C(=O)Nc2nc3cc4c(cc3[nH]2)OC(F)(F)O4)cs1 [Compound 83, N-(2,2-difluoro-5H-[1,3]dioxolo[4′,5′:4,5]benzo[1,2-d]imidazol-6-yl)-5-sulfamoylthiophene-3-carboxamide]
9 | > 1000 | > 1000 | O=C(Nc1nc2cc3c(cc2[nH]1)OC(F)(F)O3)c1ncn[nH]1 [Compound 84, N-(2,2-difluoro-5H-[1,3]dioxolo[4′,5′:4,5]benzo[1,2-d]imidazol-6-yl)-1H-1,2,4-triazole-3-carboxamide]
10 | 200 to 1000 | 200 to 1000 | CS(=O)(=O)c1ccc(C(=O)Nc2nc3cc4c(cc3[nH]2)OC(F)(F)O4)s1 [Compound 85, N-(2,2-difluoro-5H-[1,3]dioxolo[4′,5′:4,5]benzo[1,2-d]imidazol-6-yl)-5-(methylsulfonyl)thiophene-2-carboxamide]
11 | > 1000 | > 1000 | O=C(Nc1nc2cc3c(cc2[nH]1)OC(F)(F)O3)c1cc(Cl)ccc1O [Compound 86, 5-chloro-N-(2,2-difluoro-5H-[1,3]dioxolo[4′,5′:4,5]benzo[1,2-d]imidazol-6-yl)-2-hydroxybenzamide]
12 | 200 to 1000 | < 200 | Nc1cccc(C(=O)Nc2nc3cc4c(cc3[nH]2)OC(F)(F)O4)c1 [Compound 87, 3-amino-N-(2,2-difluoro-5H-[1,3]dioxolo[4′,5′:4,5]benzo[1,2-d]imidazol-6-yl)benzamide]
13 | < 200 | < 200 | O=C(Nc1nc2cc3c(cc2[nH]1)OC(F)(F)O3)c1cc([N+](=O)[O-])c[nH]1 [Compound 88, N-(2,2-difluoro-5H-[1,3]dioxolo[4′,5′:4,5]benzo[1,2-d]imidazol-6-yl)-4-nitro-1H-pyrrole-2-carboxamide]
14 | 200 to 1000 | 200 to 1000 | Cc1ccc(C(=O)Nc2nc(C(=O)Nc3nc4cc5c(cc4[nH]3)OC(F)(F)O5)ns2)cc1 [Compound 89, N-(2,2-difluoro-5H-[1,3]dioxolo[4′,5′:4,5]benzo[1,2-d]imidazol-6-yl)-5-(4-methylbenzamido)-1,2,4-thiadiazole-3-carboxamide]
15 | > 1000 | > 1000 | COc1ccc(C(=O)Nc2nc(C(=O)Nc3nc4cc5c(cc4[nH]3)OC(F)(F)O5)ns2)cc1 [Compound 90, N-(2,2-difluoro-5H-[1,3]dioxolo[4′,5′:4,5]benzo[1,2-d]imidazol-6-yl)-5-(4-methoxybenzamido)-1,2,4-thiadiazole-3-carboxamide]
16 | < 200 | < 200 | O=C(Nc1nc(C(=O)Nc2nc3cc4c(cc3[nH]2)OC(F)(F)O4)ns1)c1ccc(Cl)cc1 [Compound 91]
17 | < 200 | < 200 | O=C(Nc1nc(C(=O)Nc2nc3cc4c(cc3[nH]2)OC(F)(F)O4)ns1)c1ccc(F)cc1 [Compound 92, N-(2,2-difluoro-5H-[1,3]dioxolo[4′,5′:4,5]benzo[1,2-d]imidazol-6-yl)-5-(4-fluorobenzamido)-1,2,4-thiadiazole-3-carboxamide]
18 | > 1000 | > 1000 | CC(=O)Nc1n[nH]c(C(=O)Nc2nc3cc4c(cc3[nH]2)OC(F)(F)O4)n1 [Compound 95, 3-acetamido-N-(2,2-difluoro-5H-[1,3]dioxolo[4′,5′:4,5]benzo[1,2-d]imidazol-6-yl)-1H-1,2,4-triazole-5-carboxamide]
19 | 200 to 1000 | 200 to 1000 | O=C(Nc1nc2cc3c(cc2[nH]1)OC(F)(F)O3)c1csc(C2CCN(c3ncnc4ccsc34)CC2)n1 [Compound 97, N-(2,2-difluoro-5H-[1,3]dioxolo[4′,5′:4,5]benzo[1,2-d]imidazol-6-yl)-2-(1-(thieno[3,2-d]pyrimidin-4-yl)piperidin-4-yl)thiazole-4-carboxamide]
20 | > 1000 | 200 to 1000 | O=C(Nc1nc2cc3c(cc2[nH]1)OC(F)(F)O3)c1csc(-n2c(=O)n(CCN3CCOCC3)c3ccccc32)n1 [Compound 98, N-(2,2-difluoro-5H-[1,3]dioxolo[4′,5′:4,5]benzo[1,2-d]imidazol-6-yl)-2-(3-(2-morpholinoethyl)-2-oxo-2,3-dihydro-1H-benzo[d]imidazol-1-yl)thiazole-4-carboxamide]
21 | > 1000 | > 1000 | COc1cc(Nc2ncc(C(=O)Nc3nc4cc5c(cc4[nH]3)OC(F)(F)O5)s2)nc(OC)n1 [Compound 99, N-(2,2-difluoro-5H-[1,3]dioxolo[4′,5′:4,5]benzo[1,2-d]imidazol-6-yl)-2-((2,6-dimethoxypyrimidin-4-yl)amino)thiazole-5-carboxamide]
22 | < 200 | < 200 | CC(=O)c1c[nH]c(C(=O)Nc2nc3cc4c(cc3[nH]2)OC(F)(F)O4)c1 [Compound 104, 4-acetyl-N-(2,2-difluoro-5H-[1,3]dioxolo[4′,5′:4,5]benzo[1,2-d]imidazol-6-yl)-1H-pyrrole-2-carboxamide]
23 | < 200 | < 200 | NC(=O)c1ccc(C(=O)Nc2nc3cc4c(cc3[nH]2)OC(F)(F)O4)cc1 [Compound 111, N^1-(2,2-difluoro-5H-[1,3]dioxolo[4′,5′:4,5]benzo[1,2-d]imidazol-6-yl)terephthalamide]
24 | < 200 | < 200 | O=C(Nc1nc2cc3c(cc2[nH]1)OC(F)(F)O3)c1ccc(S(=O)(=O)N2CCOCC2)cc1 [Compound 117, N-(2,2-difluoro-5H-[1,3]dioxolo[4′,5′:4,5]benzo[1,2-d]imidazol-6-yl)-4-(morpholinosulfonyl)benzamide]
25 | > 1000 | 200 to 1000 | O=C(Nc1n[nH]c(C(=O)Nc2nc3cc4c(cc3[nH]2)OC(F)(F)O4)n1)c1ccc(Cl)cc1 [Compound 129, 3-(chlorobenzamido)-N-(2,2-difluoro-5H-[1,3]dioxolo[4′,5′:4,5]benzo[1,2-d]imidazol-6-yl)-1H-1,2,4-triazole-5-carboxamide]
26 | < 200 | < 200 | COc1ccc2cc([C@H](C)C(=O)Nc3nc4cc5c(cc4[nH]3)OC(F)(F)O5)ccc2c1 [Compound 133, (S)-N-(2,2-difluoro-5H-[1,3]dioxolo[4′,5′:4,5]benzo[1,2-d]imidazol-6-yl)-2-(6-methoxymaphthalen-2-yl)propanamide]
27 | < 200 | < 200 | Cc1nnsc1-c1nc(C(=O)Nc2nc3cc4c(cc3[nH]2)OC(F)(F)O4)cs1 [Compound 134, N-(2,2-difluoro-5H-[1,3]dioxolo[4′,5′:4,5]benzo[1,2-d]imidazol-6-yl)-2-(4-methyl-1,2,3-thiadiazol-5-yl)thiazole-4-carboxamide]
28 | < 200 | < 200 | O=C(Nc1nc2cc3c(cc2[nH]1)OC(F)(F)O3)c1csc(-c2cscn2)n1 [Compound 135, N-(2,2-difluoro-5H-[1,3]dioxolo[4′,5′:4,5]benzo[1,2-d]imidazol-6-yl)-[2,4-bithiazole]-4-carboxamide]
29 | 200 to 1000 | < 200 | O=C(Nc1nc2cc3c(cc2[nH]1)OC(F)(F)O3)c1coc(-c2cccs2)n1 [Compound 136, N-(2,2-difluoro-5H-[1,3]dioxolo[4′,5′:4,5]benzo[1,2-d]imidazol-6-yl)-2-(thiophen-2-yl)oxazole-4-carboxamide]
30 | < 200 | < 200 | Cc1cc(-c2nc(C(=O)Nc3nc4cc5c(cc4[nH]3)OC(F)(F)O5)cs2)no1 [Compound 141, N-(2,2-difluoro-5H-[1,3]dioxolo[4′,5′:4,5]benzo[1,2-d]imidazol-6-yl)-2-(5-methylisoxazol-3-yl)thiazole-4-carboxamide]
